Experimental data: the kinase profiling compilation of Christmann-Franck et al. (2016)

Tests used:
Assay in all cases: radiometric filter-binding kinase assay
EPHA4 (human) = EPHA4 (human) (UniProt P54764)
MKNK2 (human) = MKNK2 (human) (UniProt Q9HBH9)
CSK (human) = CSK (human) (UniProt P41240)
EEF2K (human) = EEF2K (human) (UniProt O00418)
[1] = tested on: AKT1 (human), P31749 [S473D]
BRSK2 (human) = BRSK2 (human) (UniProt Q8IWQ3)
MAP2K2 (human) = MAP2K2 (human) (UniProt P36507)
ERBB4 (human) = ERBB4 (human) (UniProt Q15303)
GSK3B (human) = GSK3B (human) (UniProt P49841)
CSNK1D (human) = CSNK1D (human) (UniProt P48730)
[2] = tested on: PAK2 (human), Q13177 [T402E]
RPS6KA3 KD1 KD2 (human) = RPS6KA3 KD1 KD2 (human) (UniProt P51812)
AURKA (human) = AURKA (human) (UniProt O14965)
FGFR1 (human) = FGFR1 (human) (UniProt P11362)
NEK6 (human) = NEK6 (human) (UniProt Q9HC98)
MAP3K1 (human) = MAP3K1 (human) (UniProt Q13233)
SRPK1 (human) = SRPK1 (human) (UniProt Q96SB4)
Chain of SRPK1 (human) (Q96SB4 whole entry, looked up): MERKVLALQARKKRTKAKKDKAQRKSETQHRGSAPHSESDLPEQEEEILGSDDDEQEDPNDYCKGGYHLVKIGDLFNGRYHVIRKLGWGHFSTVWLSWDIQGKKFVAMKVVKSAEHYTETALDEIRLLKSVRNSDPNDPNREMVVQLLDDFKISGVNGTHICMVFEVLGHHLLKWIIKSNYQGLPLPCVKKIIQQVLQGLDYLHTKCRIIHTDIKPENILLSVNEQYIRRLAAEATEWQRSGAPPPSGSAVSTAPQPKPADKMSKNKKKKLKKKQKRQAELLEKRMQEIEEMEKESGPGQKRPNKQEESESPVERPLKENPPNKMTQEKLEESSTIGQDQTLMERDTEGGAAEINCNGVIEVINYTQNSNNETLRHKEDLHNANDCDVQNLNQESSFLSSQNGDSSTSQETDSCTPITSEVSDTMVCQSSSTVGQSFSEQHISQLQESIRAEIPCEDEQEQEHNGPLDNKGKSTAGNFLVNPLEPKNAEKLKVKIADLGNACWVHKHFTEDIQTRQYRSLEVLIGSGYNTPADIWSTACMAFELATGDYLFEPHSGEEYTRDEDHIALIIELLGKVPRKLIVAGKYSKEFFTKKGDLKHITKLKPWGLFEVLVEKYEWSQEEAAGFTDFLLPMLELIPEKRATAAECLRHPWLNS

RPS6KA5 KD1 KD2 (human) = RPS6KA5 KD1 KD2 (human) (UniProt O75582)
PLK1 (human) = PLK1 (human) (UniProt P53350)
Chain of PLK1 (human) (P53350 whole entry, looked up): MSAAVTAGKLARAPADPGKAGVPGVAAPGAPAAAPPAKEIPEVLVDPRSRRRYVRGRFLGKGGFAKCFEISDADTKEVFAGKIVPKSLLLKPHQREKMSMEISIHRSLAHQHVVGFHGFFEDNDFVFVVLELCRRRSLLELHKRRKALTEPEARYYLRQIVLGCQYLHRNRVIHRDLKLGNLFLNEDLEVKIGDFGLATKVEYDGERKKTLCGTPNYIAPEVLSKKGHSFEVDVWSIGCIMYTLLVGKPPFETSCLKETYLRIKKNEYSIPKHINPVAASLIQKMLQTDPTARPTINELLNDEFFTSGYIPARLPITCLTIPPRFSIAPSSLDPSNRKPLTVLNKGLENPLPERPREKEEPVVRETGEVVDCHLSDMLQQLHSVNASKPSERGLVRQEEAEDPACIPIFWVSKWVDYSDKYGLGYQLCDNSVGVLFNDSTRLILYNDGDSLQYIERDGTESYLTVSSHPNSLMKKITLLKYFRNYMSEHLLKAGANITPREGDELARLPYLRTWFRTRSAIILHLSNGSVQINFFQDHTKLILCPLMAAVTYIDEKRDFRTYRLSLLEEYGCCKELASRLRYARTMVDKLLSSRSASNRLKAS

IKBKB (human) = IKBKB (human) (UniProt O14920)
MAPK8 (human) = MAPK8 (human) (UniProt P45983)
Chain of MAPK8 (human) (P45983 whole entry, looked up): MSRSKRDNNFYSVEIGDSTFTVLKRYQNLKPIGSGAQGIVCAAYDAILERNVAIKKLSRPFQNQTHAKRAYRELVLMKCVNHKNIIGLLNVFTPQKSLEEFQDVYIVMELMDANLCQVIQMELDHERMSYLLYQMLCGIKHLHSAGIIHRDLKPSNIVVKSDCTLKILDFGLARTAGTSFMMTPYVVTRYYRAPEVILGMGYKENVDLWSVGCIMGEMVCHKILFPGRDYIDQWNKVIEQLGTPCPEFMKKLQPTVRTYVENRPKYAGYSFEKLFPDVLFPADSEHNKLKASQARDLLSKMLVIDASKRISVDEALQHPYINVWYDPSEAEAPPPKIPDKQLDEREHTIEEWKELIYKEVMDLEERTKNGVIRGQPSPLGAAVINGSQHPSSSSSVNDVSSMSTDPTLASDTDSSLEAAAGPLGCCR

BTK (human) = BTK (human) (UniProt Q06187)
MAPK15 (human) = MAPK15 (human) (UniProt Q8TD08)
MAPKAPK3 (human) = MAPKAPK3 (human) (UniProt Q16644)
[3] = target: STK11 CAB39 STRADA (human) (UniProt Q9Y376+Q7RTN6+Q15831)
MAPK1 (human) = MAPK1 (human) (UniProt P28482)
MAP3K5 (human) = MAP3K5 (human) (UniProt Q99683)
PAK7 (human) = PAK7 (human) (UniProt Q9P286)
MAPK3 (human) = MAPK3 (human) (UniProt P27361)
MAP2K6 (human) = MAP2K6 (human) (UniProt P52564)
MAPK9 (human) = MAPK9 (human) (UniProt P45984)
HIPK3 (human) = HIPK3 (human) (UniProt Q9H422)
Chain of HIPK3 (human) (Q9H422 whole entry, looked up): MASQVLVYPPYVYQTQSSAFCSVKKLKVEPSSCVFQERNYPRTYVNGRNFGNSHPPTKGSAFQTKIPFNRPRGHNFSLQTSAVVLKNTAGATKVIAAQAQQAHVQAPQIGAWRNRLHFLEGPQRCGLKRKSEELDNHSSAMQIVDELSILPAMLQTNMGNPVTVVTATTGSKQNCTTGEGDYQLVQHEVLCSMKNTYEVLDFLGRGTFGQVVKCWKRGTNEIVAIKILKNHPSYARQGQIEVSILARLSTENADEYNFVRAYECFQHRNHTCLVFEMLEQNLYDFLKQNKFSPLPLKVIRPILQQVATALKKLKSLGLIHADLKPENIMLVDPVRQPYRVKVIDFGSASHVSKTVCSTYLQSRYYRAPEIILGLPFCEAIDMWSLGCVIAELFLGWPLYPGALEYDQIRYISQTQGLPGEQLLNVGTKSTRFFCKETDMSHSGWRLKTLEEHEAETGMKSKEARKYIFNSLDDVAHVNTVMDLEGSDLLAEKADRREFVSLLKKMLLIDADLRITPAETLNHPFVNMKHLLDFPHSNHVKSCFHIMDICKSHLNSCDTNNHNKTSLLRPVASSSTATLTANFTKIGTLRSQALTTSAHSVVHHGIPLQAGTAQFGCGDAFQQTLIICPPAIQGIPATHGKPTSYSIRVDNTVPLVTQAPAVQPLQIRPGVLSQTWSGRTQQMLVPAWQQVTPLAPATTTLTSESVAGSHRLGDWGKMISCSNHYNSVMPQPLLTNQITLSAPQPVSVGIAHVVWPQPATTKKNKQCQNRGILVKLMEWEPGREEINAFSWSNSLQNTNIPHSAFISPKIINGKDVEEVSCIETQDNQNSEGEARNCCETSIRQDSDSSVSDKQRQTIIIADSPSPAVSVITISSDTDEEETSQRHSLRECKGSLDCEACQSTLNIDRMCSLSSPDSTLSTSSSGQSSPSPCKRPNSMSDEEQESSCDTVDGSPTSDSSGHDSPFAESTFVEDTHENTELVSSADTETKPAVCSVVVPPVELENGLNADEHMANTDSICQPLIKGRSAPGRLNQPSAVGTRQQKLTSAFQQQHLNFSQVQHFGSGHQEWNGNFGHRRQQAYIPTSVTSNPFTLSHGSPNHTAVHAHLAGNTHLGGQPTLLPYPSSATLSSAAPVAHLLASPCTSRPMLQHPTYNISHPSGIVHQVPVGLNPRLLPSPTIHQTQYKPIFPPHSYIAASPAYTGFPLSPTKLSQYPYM

HIPK1 (human) = HIPK1 (human) (UniProt Q86Z02)
TBK1 (human) = TBK1 (human) (UniProt Q9UHD2)
Chain of TBK1 (human) (Q9UHD2 whole entry, looked up): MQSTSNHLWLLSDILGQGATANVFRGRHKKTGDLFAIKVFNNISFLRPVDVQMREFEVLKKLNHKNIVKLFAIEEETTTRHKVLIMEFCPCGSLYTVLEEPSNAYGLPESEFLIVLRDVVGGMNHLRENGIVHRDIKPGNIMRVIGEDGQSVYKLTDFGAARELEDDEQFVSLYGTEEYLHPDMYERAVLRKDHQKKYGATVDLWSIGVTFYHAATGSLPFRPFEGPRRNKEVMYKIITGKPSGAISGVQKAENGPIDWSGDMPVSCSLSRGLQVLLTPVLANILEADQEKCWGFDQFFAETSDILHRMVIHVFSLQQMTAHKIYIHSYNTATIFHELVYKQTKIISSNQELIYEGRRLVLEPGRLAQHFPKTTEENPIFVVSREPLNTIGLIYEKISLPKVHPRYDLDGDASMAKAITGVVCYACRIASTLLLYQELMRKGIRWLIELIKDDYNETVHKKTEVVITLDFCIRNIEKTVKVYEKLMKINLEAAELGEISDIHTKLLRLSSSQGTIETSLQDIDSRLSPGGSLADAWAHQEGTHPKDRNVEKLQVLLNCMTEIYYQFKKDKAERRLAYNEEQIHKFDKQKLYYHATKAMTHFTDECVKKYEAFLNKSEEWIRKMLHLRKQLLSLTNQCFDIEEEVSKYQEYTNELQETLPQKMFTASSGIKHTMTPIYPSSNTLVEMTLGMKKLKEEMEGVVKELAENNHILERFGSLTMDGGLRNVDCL

BRSK1 (human) = BRSK1 (human) (UniProt Q8TDC3)

Chain of EEF2K (human) (O00418 whole entry, looked up): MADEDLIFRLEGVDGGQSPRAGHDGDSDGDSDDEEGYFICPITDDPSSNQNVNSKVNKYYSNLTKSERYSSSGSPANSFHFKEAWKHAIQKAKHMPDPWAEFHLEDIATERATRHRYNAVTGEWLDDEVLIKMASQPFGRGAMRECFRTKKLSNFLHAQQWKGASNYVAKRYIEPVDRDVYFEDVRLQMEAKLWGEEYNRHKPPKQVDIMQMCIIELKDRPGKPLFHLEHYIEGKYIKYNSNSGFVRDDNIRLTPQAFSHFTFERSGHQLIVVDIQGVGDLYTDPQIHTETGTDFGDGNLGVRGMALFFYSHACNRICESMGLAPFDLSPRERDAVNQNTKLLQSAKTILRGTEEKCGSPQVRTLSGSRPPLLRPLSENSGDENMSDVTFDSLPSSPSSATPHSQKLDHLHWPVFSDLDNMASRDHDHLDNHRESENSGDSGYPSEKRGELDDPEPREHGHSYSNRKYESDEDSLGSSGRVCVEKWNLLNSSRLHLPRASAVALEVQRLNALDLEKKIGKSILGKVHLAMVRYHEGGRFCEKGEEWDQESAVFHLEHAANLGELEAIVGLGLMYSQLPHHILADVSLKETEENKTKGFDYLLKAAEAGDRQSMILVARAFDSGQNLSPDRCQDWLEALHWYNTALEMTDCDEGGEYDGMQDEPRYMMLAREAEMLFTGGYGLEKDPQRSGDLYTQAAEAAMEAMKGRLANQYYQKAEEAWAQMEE
Chain of AKT1 (human), P31749 [S473D] (P31749 whole entry S473D, looked up): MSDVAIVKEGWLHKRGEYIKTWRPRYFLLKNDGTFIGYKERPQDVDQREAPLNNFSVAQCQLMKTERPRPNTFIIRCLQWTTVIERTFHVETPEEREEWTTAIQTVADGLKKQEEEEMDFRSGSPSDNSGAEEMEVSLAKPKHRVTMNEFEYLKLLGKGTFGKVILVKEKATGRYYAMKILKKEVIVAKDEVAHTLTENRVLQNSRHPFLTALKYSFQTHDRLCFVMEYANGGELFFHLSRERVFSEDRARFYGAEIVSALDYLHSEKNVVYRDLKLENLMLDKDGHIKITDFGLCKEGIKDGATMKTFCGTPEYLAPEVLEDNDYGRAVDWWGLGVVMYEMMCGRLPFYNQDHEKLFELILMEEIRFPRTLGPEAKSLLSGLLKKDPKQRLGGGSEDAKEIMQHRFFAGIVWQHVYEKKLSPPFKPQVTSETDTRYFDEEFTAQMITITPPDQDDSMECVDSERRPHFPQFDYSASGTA

- residual activity (EPHA4 (human); compound 1.0 µM): 78%
- residual activity (EPHA4 (human); compound 10.0 µM): 76%
- residual activity (MKNK2 (human); compound 0.1 µM): 90%
- residual activity (MKNK2 (human); compound 1.0 µM): 92%
- residual activity (MKNK2 (human); compound 10.0 µM): 96%
- residual activity (CSK (human); compound 0.1 µM): 97%
- residual activity (CSK (human); compound 1.0 µM): 85%
- residual activity (CSK (human); compound 10.0 µM): 97%
- residual activity (EEF2K (human); compound 0.1 µM): 102%
- residual activity (EEF2K (human); compound 1.0 µM): 106%
- residual activity (EEF2K (human); compound 10.0 µM): 117%
- residual activity ([1]; compound 0.1 µM): 86%
- residual activity ([1]; compound 1.0 µM): 91%
- residual activity ([1]; compound 10.0 µM): 88%
- residual activity (BRSK2 (human); compound 0.1 µM): 86%
- residual activity (BRSK2 (human); compound 1.0 µM): 97%
- residual activity (BRSK2 (human); compound 10.0 µM): 90%
- residual activity (MAP2K2 (human); compound 1.0 µM): 109%
- residual activity (MAP2K2 (human); compound 10.0 µM): 90%
- residual activity (ERBB4 (human); compound 1.0 µM): 80%
- residual activity (ERBB4 (human); compound 10.0 µM): 86%
- residual activity (GSK3B (human); compound 1.0 µM): 78%
- residual activity (GSK3B (human); compound 10.0 µM): 67%
- residual activity (CSNK1D (human); compound 0.1 µM): 99%
- residual activity (CSNK1D (human); compound 1.0 µM): 106%
- residual activity (CSNK1D (human); compound 10.0 µM): 91%
- residual activity ([2]; compound 1.0 µM): 107%
- residual activity ([2]; compound 10.0 µM): 108%
- residual activity (RPS6KA3 KD1 KD2 (human); compound 1.0 µM): 84%
- residual activity (RPS6KA3 KD1 KD2 (human); compound 10.0 µM): 46%
- residual activity (AURKA (human); compound 1.0 µM): 102%
- residual activity (AURKA (human); compound 10.0 µM): 94%
- residual activity (FGFR1 (human); compound 0.1 µM): 103%
- residual activity (FGFR1 (human); compound 1.0 µM): 91%
- residual activity (FGFR1 (human); compound 10.0 µM): 68%
- residual activity (NEK6 (human); compound 0.1 µM): 84%
- residual activity (NEK6 (human); compound 1.0 µM): 108%
- residual activity (NEK6 (human); compound 10.0 µM): 83%
- residual activity (MAP3K1 (human); compound 1.0 µM): 92%
- residual activity (MAP3K1 (human); compound 10.0 µM): 45%
- residual activity (SRPK1 (human); compound 0.1 µM): 94%
- residual activity (SRPK1 (human); compound 1.0 µM): 92%
- residual activity (SRPK1 (human); compound 10.0 µM): 86%
- residual activity (RPS6KA5 KD1 KD2 (human); compound 0.1 µM): 94%
- residual activity (RPS6KA5 KD1 KD2 (human); compound 1.0 µM): 90%
- residual activity (RPS6KA5 KD1 KD2 (human); compound 10.0 µM): 68%
- residual activity (PLK1 (human); compound 0.1 µM): 84%
- residual activity (PLK1 (human); compound 1.0 µM): 94%
- residual activity (PLK1 (human); compound 10.0 µM): 104%
- residual activity (IKBKB (human); compound 0.1 µM): 84%
- residual activity (IKBKB (human); compound 1.0 µM): 93%
- residual activity (IKBKB (human); compound 10.0 µM): 84%
- residual activity (MAPK8 (human); compound 0.1 µM): 116%
- residual activity (MAPK8 (human); compound 1.0 µM): 103%
- residual activity (MAPK8 (human); compound 10.0 µM): 86%
- residual activity (BTK (human); compound 0.1 µM): 88%
- residual activity (BTK (human); compound 1.0 µM): 99%
- residual activity (BTK (human); compound 10.0 µM): 79%
- residual activity (MAPKAPK3 (human); compound 1.0 µM): 90%
- residual activity (MAPKAPK3 (human); compound 10.0 µM): 100%
- residual activity ([3]; compound 1.0 µM): 93%
- residual activity ([3]; compound 10.0 µM): 97%
- residual activity (MAPK1 (human); compound 0.1 µM): 93%
- residual activity (MAPK1 (human); compound 1.0 µM): 103%
- residual activity (MAPK1 (human); compound 10.0 µM): 97%
- residual activity (MAP3K5 (human); compound 1.0 µM): 98%
- residual activity (MAP3K5 (human); compound 10.0 µM): 100%
- residual activity (PAK7 (human); compound 0.1 µM): 79%
- residual activity (PAK7 (human); compound 1.0 µM): 91%
- residual activity (PAK7 (human); compound 10.0 µM): 72%
- residual activity (MAPK3 (human); compound 0.1 µM): 88%
- residual activity (MAPK3 (human); compound 1.0 µM): 105%
- residual activity (MAPK3 (human); compound 10.0 µM): 117%
- residual activity (MAP2K6 (human); compound 1.0 µM): 97%
- residual activity (MAP2K6 (human); compound 10.0 µM): 98%
- residual activity (MAPK9 (human); compound 0.1 µM): 101%
- residual activity (MAPK9 (human); compound 1.0 µM): 93%
- residual activity (MAPK9 (human); compound 10.0 µM): 87%
- residual activity (HIPK3 (human); compound 0.1 µM): 88%
- residual activity (HIPK3 (human); compound 1.0 µM): 92%
- residual activity (HIPK3 (human); compound 10.0 µM): 73%
- residual activity (HIPK1 (human); compound 1.0 µM): 104%
- residual activity (HIPK1 (human); compound 10.0 µM): 91%
- residual activity (TBK1 (human); compound 0.1 µM): 97%
- residual activity (TBK1 (human); compound 1.0 µM): 91%
- residual activity (TBK1 (human); compound 10.0 µM): 56%
- residual activity (BRSK1 (human); compound 1.0 µM): 94%
- residual activity (BRSK1 (human); compound 10.0 µM): 87%
SMILES: O=C(Nc1ccccc1-c1cn2c(CN3CCNCC3)csc2n1)c1cnc2ccccc2n1
- residual activity (MAPK15 (human); compound 0.1 µM): 81%
- residual activity (MAPK15 (human); compound 1.0 µM): 96%
- residual activity (MAPK15 (human); compound 10.0 µM): 86%
